Test results: PubChem BioAssay (NCI)
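A five-concentration, 48-hour dose response in 96-well plates underlies each endpoint, interpolated linearly between surrounding concentrations. At the GI50, growth is halved. TGI marks complete inhibition of growth.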

Legend:
Assay in all cases: inhibition of tumour cell growth, NCI panel, 48 h
[1] = tested on: 786-0 renal
[2] = tested on: A498 renal
[3] = tested on: A549 NSCLC
[4] = tested on: ACHN renal
[5] = tested on: BT-549 breast
[6] = tested on: CAKI-1 renal
[7] = tested on: CCRF-CEM leukemia
[8] = tested on: COLO 205 colon
[9] = tested on: DU-145 prostate
[10] = tested on: HCC-2998 colon
[11] = tested on: HCT-116 colon
[12] = tested on: HCT-15 colon
[13] = tested on: HL-60(TB) leukemia
[14] = tested on: HOP-62 NSCLC
[15] = tested on: HOP-92 NSCLC
[16] = tested on: HS 578T breast
[17] = tested on: HT29 colon
[18] = tested on: IGROV1 ovarian
[19] = tested on: K-562 leukemia
[20] = tested on: KM12 colon
[21] = tested on: LOX IMVI melanoma
[22] = tested on: M14 melanoma
[23] = tested on: MALME-3M melanoma
[24] = tested on: MCF7 breast
[25] = tested on: MDA-MB-231 breast
[26] = tested on: MDA-MB-435
[27] = tested on: MOLT-4 leukemia
[28] = tested on: NCI-H226 lung
[29] = tested on: NCI-H23 lung
[30] = tested on: NCI-H460 lung
[31] = tested on: NCI-H522 lung
[32] = tested on: NCI/ADR-RES ovarian
[33] = tested on: OVCAR-3 ovarian
[34] = tested on: OVCAR-5 ovarian
[35] = tested on: OVCAR-8 ovarian
[36] = tested on: PC-3 prostate
[37] = tested on: RXF 393 renal
[38] = tested on: SF-268 CNS
[39] = tested on: SF-295 CNS
[40] = tested on: SF-539 CNS
[41] = tested on: SK-MEL-2 melanoma
[42] = tested on: SK-MEL-28 melanoma
[43] = tested on: SK-MEL-5 melanoma
[44] = tested on: SK-OV-3 ovarian
[45] = tested on: SN12C renal
[46] = tested on: SNB-19 CNS
[47] = tested on: SNB-75 CNS
[48] = tested on: SR leukemia
[49] = tested on: SW-620 colon
[50] = tested on: T-47D breast
[51] = tested on: TK-10 renal
[52] = tested on: U251 CNS
[53] = tested on: UACC-257 melanoma
[54] = tested on: UACC-62 melanoma
[55] = tested on: UO-31 renal

SMILES: CCC(=O)Oc1cc(/C=C/C(=O)O[C@H]2C[C@H]3CN4CCc5c([nH]c6cc(OC)ccc56)[C@@H]4C[C@@H]3[C@@H](C(=O)OC)[C@@H]2OC)ccc1OC
- GI50 [1]: 7.26 µM
- TGI [1]: > 100 µM
- GI50 [2]: 1940 nM
- TGI [2]: 9.9 µM
- GI50 [3]: 21.6 µM
- TGI [3]: > 100 µM
- GI50 [4]: 5.34 µM
- TGI [4]: > 100 µM
- GI50 [5]: 7.53 µM
- TGI [5]: 62.4 µM
- GI50 [6]: 3.22 µM
- TGI [6]: > 100 µM
- GI50 [7]: 3.75 µM
- TGI [7]: > 100 µM
- GI50 [8]: 4.57 µM
- TGI [8]: 17.7 µM
- GI50 [9]: 18 µM
- TGI [9]: > 100 µM
- GI50 [10]: 47.1 µM
- TGI [10]: > 100 µM
- GI50 [11]: 9.11 µM
- TGI [11]: 78.9 µM
- GI50 [12]: 5.7 µM
- TGI [12]: 23.8 µM
- GI50 [13]: 3.7 µM
- TGI [13]: 26.9 µM
- GI50 [14]: 25.2 µM
- TGI [14]: > 100 µM
- GI50 [15]: 1580 nM
- TGI [15]: 11.5 µM
- GI50 [16]: 5.3 µM
- TGI [16]: > 100 µM
- GI50 [17]: 3.37 µM
- TGI [17]: 11.9 µM
- GI50 [18]: 14.1 µM
- TGI [18]: 75.8 µM
- GI50 [19]: 4.06 µM
- TGI [19]: > 100 µM
- GI50 [20]: 18.7 µM
- TGI [20]: > 100 µM
- GI50 [21]: 13.1 µM
- TGI [21]: 55.1 µM
- GI50 [22]: 13.1 µM
- TGI [22]: > 100 µM
- GI50 [23]: 6.75 µM
- TGI [23]: 29 µM
- GI50 [24]: 5.16 µM
- TGI [24]: 24.3 µM
- GI50 [25]: 5 µM
- TGI [25]: 28.4 µM
- GI50 [26]: 12 µM
- TGI [26]: 29.2 µM
- GI50 [27]: 3.87 µM
- TGI [27]: > 100 µM
- GI50 [28]: 11.8 µM
- TGI [28]: > 100 µM
- GI50 [29]: 20.5 µM
- TGI [29]: > 100 µM
- GI50 [30]: 28.6 µM
- TGI [30]: > 100 µM
- GI50 [31]: 16.2 µM
- TGI [31]: 33.6 µM
- GI50 [32]: 20.5 µM
- TGI [32]: > 100 µM
- GI50 [33]: 7.3 µM
- TGI [33]: 67.5 µM
- GI50 [34]: 40.4 µM
- TGI [34]: > 100 µM
- GI50 [35]: 19.7 µM
- TGI [35]: > 100 µM
- GI50 [36]: 15 µM
- TGI [36]: > 100 µM
- GI50 [37]: 3.68 µM
- TGI [37]: 17.4 µM
- GI50 [38]: 14.1 µM
- TGI [38]: > 100 µM
- GI50 [39]: 31 µM
- TGI [39]: > 100 µM
- GI50 [40]: 12.3 µM
- TGI [40]: 30.9 µM
- GI50 [41]: 17.6 µM
- TGI [41]: 36.6 µM
- GI50 [42]: 13.6 µM
- TGI [42]: 35.2 µM
- GI50 [43]: 13 µM
- TGI [43]: 28.5 µM
- GI50 [44]: 59 µM
- TGI [44]: > 100 µM
- GI50 [45]: 12 µM
- TGI [45]: > 100 µM
- GI50 [46]: 22.4 µM
- TGI [46]: > 100 µM
- GI50 [47]: 3.74 µM
- TGI [47]: 26.8 µM
- GI50 [48]: 2270 nM
- TGI [48]: > 100 µM
- GI50 [49]: 15.9 µM
- TGI [49]: > 100 µM
- GI50 [50]: 10.8 µM
- TGI [50]: 41.2 µM
- GI50 [51]: 14 µM
- TGI [51]: 45.1 µM
- GI50 [52]: 9.67 µM
- TGI [52]: 88.1 µM
- GI50 [53]: 15 µM
- TGI [53]: > 100 µM
- GI50 [54]: 12.1 µM
- TGI [54]: 29.5 µM
- GI50 [55]: 4.82 µM
- TGI [55]: > 100 µM
